Experimental data from US8633186B2, “Modulation of chemosensory receptors and ligands associated therewith” (Senomyx Inc., priority 2007, dated 2014).
One block for each compound: values may come before it.

What was measured:
[1] = tested on: human panelists (which sample is sweeter); assay: Sweet flavor and sweet flavor enhancement, human panelists, paired comparison test; assay type: in vivo
Protocol: Test samples containing experimental compounds are presented in pairs to the panelist and they are asked to determine which of the sample is sweeter. A group of 10-16 or more panelists participated in each test. Subjects refrained from eating or drinking (except water) for at least 1 hour prior to the test. Subjects rinsed with water several times to clean the mouth.
All samples are prepared with ethanol to ensure dispersion of the compound in solution. This includes samples without compound; all solutions are balanced for 0.1% ethanol.
Samples are also prepared with low sodium buffer (pH 7.1) in place of water. Buffer contains 0.952 g of KCl, 5.444 g of Na2HPO4, and 0.952 g of KH2PO4 in 40 L of DIUF water. Sample volumes are usually 20 ml.
In one paired comparison test, the panelist is presented with two different samples and asked to identify the sample which is sweeter. The samples within a paired comparison test are presented in a randomized, counterbalanced order. Panelists have up to a 1 minute delay between taste tests to clear the mouth of any tastes.
Binomial probability tables are used to determine the probability of the correct number of responses occurring for each test at alpha=0.05.

[2] = tested on: human panelists (perceived sweetness intensity); assay: Sweet flavor and sweet flavor enhancement, human panelists, scaling test; assay type: in vivo; settings: for Average sweetness score (line scale 0 to 15): Table 29; for Average Sweetness: Table 36, n = 13
Text: Test samples containing experimental compounds were compared to a dose-response curve for perceived sweetness intensity of sweeteners (such as, for example, sucralose, sucrose, fructose and other sweeteners) concentrations to determine equivalent sweetness intensity.
A group of eight or more panelists tasted solutions including sweeteners at various concentrations, as well as the experimental compound both with and without added sweetener. Panelists then rated sweetness intensity of all samples on a structured horizontal line scale, anchored from 0 to 15, where 0 equals no sweetness and 15 equals equivalent sweetness to a 15% sucrose sample. Scores for sweetness intensity were averaged across panelists. Then using the average scores and/or equation of the line for the sweetener dose-response curve, equivalent sweetness concentrations were determined for the samples containing experimental compounds.
Subjects had been previously familiarized with the key attribute taste and were trained to use the 0 to 15 point line scale. Subjects refrained from eating or drinking (except water) for at least 1 hour prior to the test. Subjects ate a cracker and rinsed with water several times to clean the mouth.
Sweetener solutions are provided at a wide range of concentrations such as 100 ppm, 200 ppm, 300 ppm, 400 ppm, and 500 ppm for sucralose, or between 0% and 12% for sucrose or fructose, in order to create a dose-response curve. Samples containing experimental compound were prepared both alone and in a 100 ppm sucralose solution or a 6% sucrose or fructose solution. All samples were made up in low sodium buffer pH 7.1. In order to aid dispersion, solutions can be made up in 0.1% ethanol.
The solutions were dispensed in 20 ml volumes into 1 oz. sample cups and served to the subjects at room temperature. All samples were presented in randomized counterbalanced order to reduce response bias. Further, two sessions of testing may be used to check panel precision.
Subjects tasted each sample individually and rate sweetness intensity on the line scale prior to tasting the next sample. All samples were expectorated. Subjects may retaste the samples but can only use the volume of sample given. Subjects must rinse with water between samples. Eating an unsalted cracker between samples may be required depending on the samples tasted.
The scores for each sample were averaged across subjects and standard error was calculated. The dose-response curve was plotted graphically, and this may be used to ensure the panel is rating accurately; i.e., increasing the concentration of sucralose should correspond to increased average scores for sweetness. A 2-way ANOVA (factors being samples and panelists) and multiple comparison tests (such as Tukey's Honestly Significant Difference test) can be used to determine differences among samples and/or panelists. A 3-way ANOVA, with sessions as the third factor, can be used to determine if there is any difference in the ratings between sessions.

[3] = Table 35, 6% Fructose alone vs 6% Fructose + 100 μM C20, of n = 19

melting point: 235 to 236 °C
SMILES: CC(C)(COc1cccc2c1C(N)=NS(=O)(=O)N2)NC(=O)c1ccccc1 [Example 216, N-(1-(4-amino-2,2-dioxide-1H-benzo[c][,6]thiadiazin-5-yloxy)-2′-methylpropan-2′-yl)benzamide]

melting point: 221 °C
SMILES: O=C(NC1CCCCC1)c1c(O)c2ccccc2[nH]c1=O [Example 73, N-cyclohexyl-4-hydroxy-2-oxo-1,2-dihydroquinoline-3-carboxamide]

melting point: 215 to 216 °C
SMILES: NC1=NS(=O)(=O)Nc2cccc(OC3CCCCC3)c21 [Example 168, 4-Amino-5-(cyclohexyloxy)-1H-benzo[c][1,2,6]thiadiazine-2,2-dioxide]

melting point: > 250 °C
SMILES: CC(C)=Cc1c(F)ccc2c1C(N)=NS(=O)(=O)N2 [Example 134, 4-Amino-6-fluoro-5-(2-methylprop-1-enyl)-1H-benzo[c][1,2,3]thiadiazine-2,2-dioxide]

melting point: > 260 °C
SMILES: CC(C)=Cc1cccc2c1C(N)=NS(=O)(=O)N2 [Example 129, 4-Amino-5-(2-methylprop-1-enyl)-1H-benzo[c][1,2,3]thiadiazine-2,2-dioxide]

melting point: 225 to 226 °C
SMILES: CCCNC(=O)C(C)(C)COc1cccc2c1C(N)=NS(=O)(=O)N2 [Example 215, 3-(4-Amino-2,2-dioxide-1H-benzo[c][1,2,6]thiadiazin-5-yloxy)-2′,2′-dimethyl-N-propylpropanamide]

melting point: > 260 °C
SMILES: C/C=C/c1cccc2c1C(N)=NS(=O)(=O)N2 [Example 130, 4-Amino-5-((E)-prop-1-enyl)-1H-benzo[c][1,2,3]thiadiazine-2,2-dioxide]

Continued, compound first:

SMILES: Nc1nc(=O)[nH]c2sc3c(c12)CCOC3 [Compound 568]
Sample selected as more sweet by panelists, Total ([1]; Table 33, 6% Fructose + 100 μM compound vs 6% Fructose, of n = 26 (13 panelists × 2 reps)): 20

SMILES: N#Cc1c(N)c2ccccc2[nH]c1=O [Example 71, 4-Amino-2-oxo-1,2-dihydroquinoline-3-carbonitrile]
melting point: > 250 °C

SMILES: N#Cc1c(Cl)c2ccccc2[nH]c1=O [Example 72, 4-chloro-2-oxo-1,2-dihydroquinoline-3-carbonitrile]
melting point: > 250 °C

SMILES: Cc1sc2[nH]c(=S)nc(N)c2c1C [Example 1, 4-Amino-5,6-dimethylthieno[2,3-d]pyrimidine-2(1H)-thione]
melting point: > 260 °C

SMILES: O=C(CO)[C@@H](O)[C@H](O)[C@H](O)CO [Fructose, fructose]
Average sweetness score (line scale 0 to 15) ([2]; 6% fructose alone): 6.9 | Average sweetness score (line scale 0 to 15) ([2]; 8% fructose alone): 8.6 | Average sweetness score (line scale 0 to 15) ([2]; 9% fructose alone): 9.3 | Average sweetness score (line scale 0 to 15) ([2]; 10% fructose alone): 9.5 | Average Sweetness ([2]; 2% Fructose alone): 2.3 | Average Sweetness ([2]; 4% Fructose alone): 4.2 | Average Sweetness ([2]; 6% Fructose alone): 5.9 | Sample selected as more sweet by panelists, Total ([1]; Table 33, 6% Fructose alone vs 6% Fructose + 100 μM compound, of n = 26): 6 | Sample selected as more sweet by panelists, Total ([1]; Table 34, 6% Fructose alone vs 6% Fructose + 100 μM C19, of n = 24): 6 | Sample selected as more sweet by panelists, Test 1 [1, 3]: 0 | Sample selected as more sweet by panelists, Total [1, 3]: 0 | Sample selected as more sweet by panelists, Test 1 ([1]; Table 37, 6% Fructose alone vs 6% fructose + 25 μM C21, of n = 25): 5 | Sample selected as more sweet by panelists, Test 1 ([1]; Table 38, 7% Fructose alone vs 6% fructose + 25 μM C21, of n = 25): 13

SMILES: Nc1nc(=O)[nH]c2sc3c(c12)CCOC3 [Example 146, 4-Amino-5,6-(5′,7′-dihydro-4′H-[2′,3′-c]pyrano)thieno[2,3-d]-pyrimidine-2(1H)-one]
melting point: > 260 °C

SMILES: Cc1sc2[nH]c(=O)nc(N)c2c1C.Cl
melting point: > 260 °C

SMILES: Cc1cccc2[nH]c(=S)nc(N)c12 [Example 3, 4-Amino-5-methylquinazoline-2(1H)-thione]
melting point: > 250 °C
